Entries after “also recorded” stand apart in the source; their conditions may differ.
Experiments:
[1] = test system: healthy controls (HC) and MDD participants; test: Cardiovascular safety: blood pressure and heart rate after intravenous DMT; assay type: in vivo, human
Description: (§1) Blood pressure was measured at baseline and 5, 10, 15, 20, 30, 45, 60, and 120 minutes after drug administration. Heart rate and pulse oximetry were measured continuously. Subjective drug effects were measured 60 min before, as well as 30 and 120 min after drug administration.

[2] = test system: healthy controls (HC) and MDD participants; test: Psychotomimetic States Inventory (PSI); assay type: in vivo, human
Description: (§2) Both the VAS Psychedelic effects, and PSI were measured before dose administration, shortly after resolution of effects, and again near time of discharge. Subjects were instructed to retroactively rate the effects during the peak effects, given that they might not be able to accurately assess and report effects while immersed in the peak effects. […] In addition to day-after dosing follow up, subjects were contacted 1, 2, and 12 weeks after completion of the last dosing session to follow up on safety and wellbeing.

[3] = test system: healthy controls (HC) and MDD participants; test: Adverse events of the dosing sessions; assay type: in vivo, human
From the text: Given the intensity and brevity of DMT effects, participants were allowed a mostly uninterrupted experience with psychiatrists utilizing a non-directive and supportive approach. Participants were asked how they were feeling at the same time points as the physiological recordings; no psychotherapy was provided. Rescue medications for psychological distress (lorazepam and risperidone) and hypertension (labetalol) were available. Prior to discharge, a field sobriety test and mini-mental status examination were conducted to confirm return to baseline.

healthy volunteers = conditions: literature, cited from earlier work
[4] = test system: healthy controls (HC) and MDD participants; test: Psychedelic effects, 23-item Psychedelic Effects Visual Analog Scale; assay type: in vivo, human; conditions: for Peak change in VAS psychedelic composite score: mean (SD)
Description: as §1
Both the VAS Psychedelic effects, and PSI were measured before dose administration, shortly after resolution of effects, and again near time of discharge. Subjects were instructed to retroactively rate the effects during the peak effects, given that they might not be able to accurately assess and report effects while immersed in the peak effects.

[5] = test system: healthy controls (HC) and MDD participants; test: Overall tolerability of test day, visual analog scale; conditions: for overall tolerability (0=intolerable to 100=well-tolerated): mean (SD)
[6] = Serum DMT levels after intravenous DMT hemifumarate; assay type: in vivo, human; conditions: IV 0.1 and 0.3 mg/kg; 30 and 60 min after administration
Description: FIGS. 19A-19B depict serum DMT levels in healthy control (FIG. 19A) and depression subjects (FIG. 19B) with intravenous administration of DMT hemifumarate, in accordance with some embodiments. Y-axis: serum DMT levels (ng/dl); X-axis: 60 min before DMT administration; and 30 and 60 min after DMT administration. […] Solid line (0.1 mg/kg) and dotted line (0.3 mg/kg).
Referring to FIGS. 19A-19B, the present study further reports for the first-time dose-related serum DMT levels in MDD subjects who received 0.1 and […] of IV DMT. The findings in healthy controls are mostly consistent with other studies and PK models (Callaway et al., J Ethnopharmacol. 1999 June; 65(3):243-56; Gallimore and Strassman, Front. Pharmacol., 14 Jul. 2016). […] Given the increased rigor of the assay for DMT utilized in this study, it is unlikely that the variability observed in MDD subjects is spurious. It may be important to note that while DMT's acute effects had mostly resolved by +30 min time point, it is conceivable that peripheral concentration may differ from the central site of action.

[7] = test system: healthy controls (HC) and MDD participants; test: In session VAS anxiety and depression; assay type: in vivo, human; conditions: for Peak change in VAS depression: MDD participants only; for Peak change in VAS depression / Peak change in VAS anxiety scale: mean (SD); for Peak change in VAS anxiety scale: all participants
Description: as §2

[8] = test system: healthy controls (HC) and MDD participants; test: Drug desirability / reinforcement and abuse liability measures; assay type: in vivo, human; conditions: for monetized value of drug effects (scale from 0-100 dollars): mean (SD)
Description: VAS measures of tolerability, willingness to pay for the experience, and likelihood to use DMT were analyzed similarly. […] HAM-D for each dose was compared to baseline using paired t-tests. […] For 23-item VAS psychedelic effects, multiple comparison correction was performed using false discovery rate (FDR) correction for all measures in order to increase statistical power and minimize […] errors (Benjamini and Hochberg, Journal of the Royal Statistical Society. Series B (Methodological) Vol. 57, No. 1 (1995), pp. 289-300). For PSI effects, Bonferroni correction was utilized.

[9] = target: serotonin 5-HT2A receptors (Homo sapiens, UniProt P28223); conditions: literature; cited from earlier work
serotonin 5-HT2A receptors, sequence (P28223 whole entry): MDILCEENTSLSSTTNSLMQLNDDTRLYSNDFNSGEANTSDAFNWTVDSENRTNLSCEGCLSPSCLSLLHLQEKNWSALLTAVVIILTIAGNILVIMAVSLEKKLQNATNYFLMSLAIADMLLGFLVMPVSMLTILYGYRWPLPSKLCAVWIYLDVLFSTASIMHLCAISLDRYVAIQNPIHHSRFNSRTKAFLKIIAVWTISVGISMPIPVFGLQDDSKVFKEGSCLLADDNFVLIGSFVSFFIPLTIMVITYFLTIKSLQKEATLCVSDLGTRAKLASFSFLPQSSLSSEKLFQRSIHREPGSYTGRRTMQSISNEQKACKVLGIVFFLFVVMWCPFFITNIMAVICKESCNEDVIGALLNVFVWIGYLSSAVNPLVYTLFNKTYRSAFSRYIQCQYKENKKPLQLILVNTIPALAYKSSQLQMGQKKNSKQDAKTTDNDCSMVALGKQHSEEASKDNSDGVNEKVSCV

CN(C)CCc1c[nH]c2ccccc12 [DMT hemifumarate, N,N-dimethyltryptamine hemifumarate]
water solubility (in words) (Water solubility): water-soluble

CN(C)CCc1c[nH]c2ccccc12 [DMT, N,N-dimethyltryptamine]
effect on systolic and diastolic blood pressure, and heart rate ([1]; 0.1 and 0.3 mg/kg IV, no significant dose or dose-time effects): increased | time point with significant increases in heart rate relative to baseline ([1]; post-hoc analyses): +5 minute | Mean peak change in Psychotomimetic States Inventory (PSI) scale total score ([2]; 0.1 mg/kg session, mean (SD)): 7.33 (SD 7.62) | Mean peak change in Psychotomimetic States Inventory (PSI) scale total score ([2]; 0.3 mg/kg session): 31.67 (16.57) | Hedge's g, PSI total score dose difference ([2]; 0.3 vs 0.1 mg/kg): 1.89 | PSI total score peak change, difference between doses ([2]; 95% CI 12.74 to 35.94, p=0.001): 24.33 | oxygen saturation during the serious adverse event ([3]; 0.3 mg/kg IV, measured continuously): 100% | severity of adverse events (in words) ([3]; 0.1 and 0.3 mg/kg IV): mostly mild | clinically relevant psychotic symptoms ([3]; all dosing sessions): None of the participants | number of serious adverse events ([3]; asymptomatic bradycardia and hypotension in a MDD participant after 0.3 mg/kg): one | symptoms in one healthy subject with anticipatory anxiety ([3]; following 0.1 mg/kg, symptoms lasted 10 minutes): lightheadedness, and pallor | heart rate in the serious adverse event ([3]; person, 5 minutes after 0.3 mg/kg IV, dropped from 54): 42 beats per minute | blood pressure in the serious adverse event ([3]; person, 5 minutes after 0.3 mg/kg IV, dropped from 108/60): 71/42 | tolerability in healthy controls (in words) (healthy volunteers; doses ranging from 0.05-0.4 mg/kg): well-tolerated | time to emergence of effects after intravenous administration (healthy volunteers; healthy volunteers): ≤ 2 min | dose above which psychedelic effects emerge (healthy volunteers; intravenous, healthy volunteers): higher than 0.2 mg/kg | time to full resolution of effects (healthy volunteers; intravenous): about 30 minutes | Peak change in VAS psychedelic composite score ([4]; 0.1 mg/kg session): 13.16 (SD 11.91) | Peak change in VAS psychedelic composite score ([4]; 0.3 mg/kg dose): 55.83 (SD 23.89) | Hedge's g, VAS psychedelic composite score dose difference ([4]; 0.3 vs 0.1 mg/kg): 2.2 | Peak change in VAS psychedelic composite score, difference between doses ([4]; 95% CI 33.30 to 52.03, p<0.0001): 42.67 | number of the 23 VAS psychedelic items with significant dose-related differences ([4]; FDR correction, q=0.05): 16 | duration of acute effects / resolution after injection ([4]; IV): 20 to 30 min | time by which acute psychedelic effects completely subsided ([4]; IV push): ≤ 30 min | time of peak of acute psychedelic effects after dosing ([4]; IV push): 5 to 10 min | overall tolerability (0=intolerable to 100=well-tolerated) ([5]; 0.1 mg/kg IV dose session): 89.80 (SD 12.95) | overall tolerability (0=intolerable to 100=well-tolerated) ([5]; 0.3 mg/kg IV dose session): 71.11 (SD 24.52) | overall tolerability, difference between dose sessions ([5]; 0.3 vs 0.1 mg/kg, 95% CI −32.81 to −2.75, p=0.026): −17.78 | tolerability (in words) ([5]; IV, HC and MDD participants): tolerated by both HC (n=3) and MDD participants (n=7); also recorded: well tolerated by both MDD patients and HC individuals | serum DMT levels in MDD subjects compared with healthy controls (in words) [6]: can have higher serum DMT levels; also recorded: greater variability | water solubility (in words) (Water solubility): not water soluble | Peak change in VAS anxiety, difference between doses ([7]; 95% CI −14.30 to 68.53, p=0.26): 27.11 | Peak change in VAS depression, difference between doses ([7]; 95% CI −41.47 to 57.47, p=0.92): 8.00 | Peak change in VAS depression ([7]; 0.1 mg/kg session): 6.83 (SD 28.94) | Peak change in VAS depression ([7]; 0.3 mg/kg session): 14.83 (SD 37.79) | Peak change in VAS anxiety scale ([7]; 0.1 mg/kg session): 2.56 (SD 31.8) | Peak change in VAS anxiety scale ([7]; 0.3 mg/kg session): 29.67 (SD 39.96) | monetized value of drug effects (scale from 0-100 dollars) ([8]; 0.1 mg/kg session): 25.56 (SD 29.07) dollars | monetized value of drug effects (scale from 0-100 dollars) ([8]; 0.3 mg/kg session): 24.78 (SD 33.36) dollars | willingness to use DMT, difference between doses ([8]; 95% CI −16.74 to 13.62, p=0.90): −1.56 | monetized value of drug effects, difference between doses ([8]; 95% CI −32.38 to 33.94, p=0.89): −0.78 | abuse potential (in words) ([8]; intravenous): low abuse potential | activity at serotonin 5-HT2A receptors (in words) [9]: agonist activity

Source: patent US20230346718A1, “METHOD OF TREATING, AMELIORATING AND/OR […]” (YALE UNIVERSITY, priority 2022, published 2023)
